pIC50: −log10 of the molar value.
Target: T1, full-length human PKCι (Homo sapiens, UniProt P41743)
T1 construct: Recombinant, full-length human PKCι expressed in Sf21 insect cells is also commercially available; purchased; host or cells: Sf21 insect cells
T1 sequence (P41743 1-596): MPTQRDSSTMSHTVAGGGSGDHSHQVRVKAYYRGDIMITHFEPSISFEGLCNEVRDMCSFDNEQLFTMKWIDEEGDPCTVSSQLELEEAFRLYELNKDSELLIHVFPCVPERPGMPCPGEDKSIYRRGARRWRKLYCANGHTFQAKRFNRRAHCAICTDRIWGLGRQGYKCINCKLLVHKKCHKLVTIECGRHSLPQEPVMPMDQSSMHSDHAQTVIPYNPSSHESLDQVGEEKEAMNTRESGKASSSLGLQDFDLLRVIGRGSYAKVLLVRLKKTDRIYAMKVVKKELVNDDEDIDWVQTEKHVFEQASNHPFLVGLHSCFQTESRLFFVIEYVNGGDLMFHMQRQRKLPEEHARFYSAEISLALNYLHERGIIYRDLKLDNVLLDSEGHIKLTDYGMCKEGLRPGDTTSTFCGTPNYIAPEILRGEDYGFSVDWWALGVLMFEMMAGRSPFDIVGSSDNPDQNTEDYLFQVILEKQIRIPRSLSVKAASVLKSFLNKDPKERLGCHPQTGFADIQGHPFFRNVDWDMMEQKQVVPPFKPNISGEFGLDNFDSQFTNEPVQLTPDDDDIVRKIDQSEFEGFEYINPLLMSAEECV
Assay: PKCι IC50 IMAP assay, full-length PKCι at 150 μM ATP
Type: biochemical
Conditions: read-out: IC50 in IMAP assay against full length PKCi at 150 μM ATP
Method in brief: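 Dose-response IC50 values come from IMAP fluorescence polarisation after 60 min room-temperature turnover of 100 nM FAM peptide by ~15 pM insect-cell-expressed full-length PKCι at 150 μM ATP (5× KM^APP), normalised to no-compound and no-enzyme controls.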

pIC50, > 7.00:
CC1(C)CN(c2nc(-c3ccnc4[nH]c(C(C)(C)C)cc34)nc3cncc(C4CCC4)c23)CCN1 [Example 2028, 2-(2-tert-Butyl-1H-pyrrolo[2,3-b]pyridin-4-yl)-5-cyclobutyl-4-(3,3-dimethyl-piperazin-1-yl)-pyrido[3,4-d]pyrimidine]
CN(c1nc(-c2ccnc(Nc3c(F)cccc3F)c2)nc2cncc(C3CC3)c12)C1CNC1 [Example 2029, Azetidin-3-yl-{5-cyclopropyl-2-[2-(2,6-difluoro-phenylamino)-pyridin-4-yl]-pyrido[3,4-d]pyrimidin-4-yl}-methyl-amine]
FC(F)(F)Cn1cc(Cl)c(Nc2cc(-c3nc(N4CCNCC4)c4c(C5CC5)cncc4n3)ccn2)n1 [Example 2030, [4-Chloro-1-(2,2,2-trifluoro-ethyl)-1H-pyrazol-3-yl]-[4-(5-cyclopropyl-4-piperazin-1-yl-pyrido[3,4-d]pyrimidin-2-yl)-pyridin-2-yl]-amine]
Fc1cccc2c1[nH]c1nccc(-c3nc(N4CCNCC4)c4c(C5CC5)cncc4n3)c12 [Example 2031, 4-(5-Cyclopropyl-4-piperazin-1-yl-pyrido[3,4-d]pyrimidin-2-yl)-8-fluoro-9H-pyrido[2,3-b]indole]
Fc1cccn2nc(Nc3cc(-c4nc(N5CCNCC5)c5c(C6CC6)cncc5n4)ccn3)nc12 [Example 2032, [4-(5-Cyclopropyl-4-piperazin-1-yl-pyrido[3,4-d]pyrimidin-2-yl)-pyridin-2-yl]-(8-fluoro-[1,2,4]triazolo[1,5-a]pyridin-2-yl)-amine]
Fc1ccn2nc(Nc3cc(-c4nc(N5CCNCC5)c5c(C6CC6)cncc5n4)ccn3)nc2c1 [Example 2033, [4-(5-Cyclopropyl-4-piperazin-1-yl-pyrido[3,4-d]pyrimidin-2-yl)-pyridin-2-yl]-(7-fluoro-[1,2,4]triazolo[1,5-a]pyridin-2-yl)-amine]
Fc1cccc(F)c1Nc1cc(-c2nc(N[C@H]3CCNC3)c3c(C4CC4)cncc3n2)ccn1 [Example 2034, {5-Cyclopropyl-2-[2-(2,6-difluoro-phenylamino)-pyridin-4-yl]-pyrido[3,4-d]pyrimidin-4-yl}-(S)-pyrrolidin-3-yl-amine]
Fc1cccc(F)c1Nc1cc(-c2nc(N[C@@H]3CCNC3)c3c(C4CC4)cncc3n2)ccn1 [Example 2035, {5-Cyclopropyl-2-[2-(2,6-difluoro-phenylamino)-pyridin-4-yl]-pyrido[3,4-d]pyrimidin-4-yl}-(R)-pyrrolidin-3-yl-amine]
Fc1ccc2c([nH]c3nccc(-c4nc(N5CCNCC5)c5c(C6CC6)cncc5n4)c32)c1F [Example 2036, 4-(5-Cyclopropyl-4-piperazin-1-yl-pyrido[3,4-d]pyrimidin-2-yl)-7,8-difluoro-9H-pyrido[2,3-b]indole]
C[C@@H]1CN(c2nc(-c3ccnc(Nc4nc(F)cc(F)c4F)c3)nc3cncc(C4CC4)c23)C[C@H](C)N1 [Example 2037, {4-[5-Cyclopropyl-4-((cis)-3,5-dimethyl-piperazin-1-yl)-pyrido[3,4-d]pyrimidin-2-yl]-pyridin-2-yl}-(3,4,6-trifluoro-pyridin-2-yl)-amine]
CC1(C)CC(Nc2nc(-c3ccnc(Nc4c(F)cccc4F)c3)nc3cncc(C4CC4)c23)CCN1 (stereo not drawn) [Example 2038, {5-Cyclopropyl-2-[2-(2,6-difluoro-phenylamino)-pyridin-4-yl]-pyrido[3,4-d]pyrimidin-4-yl}-(2,2-dimethyl-piperidin-4-yl)-amine]
Fc1ccc2nc(Nc3cc(-c4nc(N5CCNCC5)c5c(C6CC6)cncc5n4)ccn3)nn2c1 [Example 2039, [4-(5-Cyclopropyl-4-piperazin-1-yl-pyrido[3,4-d]pyrimidin-2-yl)-pyridin-2-yl]-(6-fluoro-[1,2,4]triazolo[1,5-a]pyridin-2-yl)-amine]
Fc1cc(F)c2nc(Nc3cc(-c4nc(N5CCNCC5)c5c(C6CC6)cncc5n4)ccn3)nn2c1 [Example 2040, [4-(5-Cyclopropyl-4-piperazin-1-yl-pyrido[3,4-d]pyrimidin-2-yl)-pyridin-2-yl]-(6,8-difluoro-[1,2,4]triazolo[1,5-a]pyridin-2-yl)-amine]
Fc1cccc2nc(Nc3cc(-c4nc(N5CCNCC5)c5c(C6CC6)cncc5n4)ccn3)nn12 [Example 2041, [4-(5-Cyclopropyl-4-piperazin-1-yl-pyrido[3,4-d]pyrimidin-2-yl)-pyridin-2-yl]-(5-fluoro-[1,2,4]triazolo[1,5-a]pyridin-2-yl)-amine]
CCn1cc(Cl)c(Nc2cc(-c3nc(N4CCNC(C)(C)C4)c4c(C5CC5)cncc4n3)ccn2)n1 [Example 2043, (4-Chloro-1-ethyl-1H-pyrazol-3-yl)-{4-[5-cyclopropyl-4-(3,3-dimethyl-piperazin-1-yl)-pyrido[3,4-d]pyrimidin-2-yl]-pyridin-2-yl}-amine]
c1ccc2oc(Nc3cc(-c4nc(N5CCNCC5)c5c(C6CC6)cncc5n4)ccn3)nc2c1 [Example 2044, Benzooxazol-2-yl-[4-(5-cyclopropyl-4-piperazin-1-yl-pyrido[3,4-d]pyrimidin-2-yl)-pyridin-2-yl]-amine]
c1ccc2sc(Nc3cc(-c4nc(N5CCNCC5)c5c(C6CC6)cncc5n4)ccn3)nc2c1 [Example 2045, Benzothiazol-2-yl-[4-(5-cyclopropyl-4-piperazin-1-yl-pyrido[3,4-d]pyrimidin-2-yl)-pyridin-2-yl]-amine]
Cn1c(Nc2cc(-c3nc(N4CCNCC4)c4c(C5CC5)cncc4n3)ccn2)nc2ccccc21 [Example 2046, [4-(5-Cyclopropyl-4-piperazin-1-yl-pyrido[3,4-d]pyrimidin-2-yl)-pyridin-2-yl]-(1-methyl-1H-benzoimidazol-2-yl)-amine]
Fc1cc(C2CC2)c(F)nc1Nc1cc(-c2nc(N3CCNCC3)c3c(C4CC4)cncc3n2)ccn1 [Example 2047, (5-Cyclopropyl-3,6-difluoro-pyridin-2-yl)-[4-(5-cyclopropyl-4-piperazin-1-yl-pyrido[3,4-d]pyrimidin-2-yl)-pyridin-2-yl]-amine]
Fc1ccc(C2(c3cc4c(-c5nc(N6CCNCC6)c6c(C7CC7)cncc6n5)ccnc4[nH]3)CC2)cc1 [Example 2048, 5-Cyclopropyl-2-{2-[1-(4-fluoro-phenyl)-cyclopropyl]-1H-pyrrolo[2,3-b]pyridin-4-yl}-4-piperazin-1-yl-pyrido[3,4-d]pyrimidine]
C[C@H]1CN(c2nc(-c3ccnc(NC4CCN(CC(F)(F)F)CC4)c3)nc3cncc(C4CC4)c23)CCN1 [Example 2049, {4-[5-Cyclopropyl-4-((S)-3-methyl-piperazin-1-yl)-pyrido[3,4-d]pyrimidin-2-yl]-pyridin-2-yl}-[1-(2,2,2-trifluoro-ethyl)-piperidin-4-yl]-amine]
c1ccc2cc(Nc3cc(-c4nc(N5CCNCC5)c5c(C6CC6)cncc5n4)ccn3)ccc2c1 [Example 2050, [4-(5-Cyclopropyl-4-piperazin-1-yl-pyrido[3,4-d]pyrimidin-2-yl)-pyridin-2-yl]-naphthalen-2-yl-amine]
c1ccc(-c2cccc(Nc3cc(-c4nc(N5CCNCC5)c5c(C6CC6)cncc5n4)ccn3)c2)cc1 [Example 2051, Biphenyl-3-yl-[4-(5-cyclopropyl-4-piperazin-1-yl-pyrido[3,4-d]pyrimidin-2-yl)-pyridin-2-yl]-amine]
CN1CCN(c2cccc(Nc3cc(-c4nc(N5CCN[C@@H](C(F)(F)F)C5)c5c(C6CC6)cncc5n4)ccn3)c2)CC1 [Example 2052, {4-[5-Cyclopropyl-4-((R)-3-trifluoromethyl-piperazin-1-yl)-pyrido[3,4-d]pyrimidin-2-yl]-pyridin-2-yl}-[3-(4-methyl-piperazin-1-yl)-phenyl]-amine]
Cn1ccc(Nc2cc(-c3nc(N4CCN[C@@H](C(F)(F)F)C4)c4c(C5CC5)cncc4n3)ccn2)n1 [Example 2053, {4-[5-Cyclopropyl-4-((R)-3-trifluoromethyl-piperazin-1-yl)-pyrido[3,4-d]pyrimidin-2-yl]-pyridin-2-yl}-(1-methyl-1H-pyrazol-3-yl)-amine]
Fc1cc(F)c(F)c(Nc2cc(-c3nc(N[C@@H]4CCNC4)c4c(C5CC5)cncc4n3)ccn2)n1 [Example 2054, {5-Cyclopropyl-2-[2-(3,4,6-trifluoro-pyridin-2-ylamino)-pyridin-4-yl]-pyrido[3,4-d]pyrimidin-4-yl}-(R)-pyrrolidin-3-yl-amine]
Cn1nccc1-c1ccc(Nc2cc(-c3nc(N4CCNCC4)c4c(C5CC5)cncc4n3)ccn2)c(F)c1 [Example 2055, [4-(5-Cyclopropyl-4-piperazin-1-yl-pyrido[3,4-d]pyrimidin-2-yl)-pyridin-2-yl]-[2-fluoro-4-(2-methyl-2H-pyrazol-3-yl)-phenyl]-amine]

Reference: patent publication US9914730B2, “Azaquinazoline inhibitors of Atypical protein Kinase C” (Ignyta, Inc., priority 2012, dated 2018)
